# Results: patent US8178087B2, “Process of production of bacteriophage compositions and methods in phage therapy field” (priority 2006, dated 2012)
# What was measured:
# [1] = test system: AS19 bacterial strain; assay: different antibiotic test disks, T4-type phages on AS19 bacterial strain; type: cell-based, E. coli; settings: T4-like phages
# [2] = test system: non-infected E. coli MFP; assay: antibiotic sensitivity test disks on non-infected MFP strain; type: cell-based, Escherichia coli; settings: FIG. 1
# [3] = test system: AS19 bacterial strain; assay: growth of AS19 bacterial strain in LB liquid medium with low dose CTX (OD600, CFU/ml); type: cell-based, E. coli; settings: CTX 0.003 μg/ml
# Description: Growth was measured either by OD600 (A) or CFU/ml (B). The times (T) is indicated in minutes after addition of CTX to the growth medium.
# To examine the effect of low doses of the β-lactam antibiotic CTX on a culture of the AS19 bacterial strain, this bacterial strain was grown in LB liquid medium with CTX at a dosage level (0.003 μg/ml) that produces a substantial effect synergistic when infected with T4 phage.
# [4] = test system: AS19 bacterial strain; assay: morphology of T4 infected AS19 bacteria with or without CTX by optical microscopy; type: cell-based, E. coli; settings: CTX 0.003 μg/ml, several hours after infection, FIG. 4
# Excerpt: The morphology of the bacteria in culture has been observed by optical microscopy at different times after infection.
# [5] = test system: Escherichia. coli bacterial strain AS19; assay: T4 plaque size with CTX disk on bacterial strain AS19; type: cell-based; set-up: key to the marks not given beside the values; settings: bacterial strain AS19, bacteriophage T4, CTX test disk
# [6] = test system: Escherichia. coli bacterial strain C600; assay: T4 plaque size with CTX disk on bacterial strain C600; settings: bacterial strain C600, bacteriophage T4, CTX test disk
# [7] = test system: Escherichia. coli bacterial strain S/6; assay: T4 plaque size with CTX disk on bacterial strain S/6; set-up: key to the marks not given beside the values; settings: bacterial strain S/6, bacteriophage T4, CTX test disk
# [8] = test system: Escherichia. coli bacterial strain BE; assay: T4 plaque size with CTX disk on bacterial strain BE; type: cell-based; set-up: key to the marks not given beside the values; settings: bacteriophage T4, CTX test disk
# [9] = test system: Escherichia. coli bacterial strain MC1061; assay: T4 plaque size with CTX disk on bacterial strain MC1061; settings: bacterial strain MC1061, bacteriophage T4, CTX test disk
# [10] = test system: Escherichia. coli bacterial strain P400; assay: T4 plaque size with CTX disk on bacterial strain P400; type: cell-based; settings: bacterial strain P400, bacteriophage T4, CTX test disk
# [11] = test system: φmF-infected E. coli MFP; assay: φmF plaque size around antibiotic disks on MFP strain; type: cell-based, Escherichia coli
# Excerpt: A culture of non-infected MFP strain has been grown overnight in LB liquid medium, and then a dilution of the culture either alone or mixed with φmF phage have been inoculated on a series of nutrient Petri plate where different antibiotic sensitivity test disks were placed on the surface.
# The entire surface of the Petri plate was inoculated with a mixture of both the MFP bacterial host and with the phage φmF that could infect it (see FIG. 1, φmF-infected E. coli MFP).
# [12] = test system: uropathogenic Escherichia coli strain; assay: antibiotic sensitivity test disks on Petri plate inoculated with child's urine (phage plaques around disks); type: cell-based; settings: plate inoculated with dilution of child's urine; strain infected by bacteriophages
compound,measurement,setting,value
C[C@@H]1O[C@@H]1P(=O)(O)O [Fosfomycin],stimulation of T4 phage production (synergistic effect on phage T4 growth),[1],failed to stimulate T4 phage production
O=C(N[C@H](CO)[C@H](O)c1ccc([N+](=O)[O-])cc1)C(Cl)Cl [Choramphenicol],stimulation of T4 phage production (synergistic effect on phage T4 growth),[1],failed to stimulate T4 phage production
Colistin,stimulation of T4 phage production (synergistic effect on phage T4 growth),[1],failed to stimulate T4 phage production
COc1cc(Cc2cnc(N)nc2N)cc(OC)c1OC [Trimethoprim],stimulation of T4 phage production (synergistic effect on phage T4 growth),[1],failed to stimulate T4 phage production
CO[C@H]1/C=C/O[C@@]2(C)Oc3c(C)c(O)c4c(O)c(c(/C=N/N5CCN(C)CC5)c(O)c4c3C2=O)NC(=O)/C(C)=C\C=C\[C@H](C)[C@H](O)[C@@H](C)[C@@H](O)[C@@H](C)[C@H](OC(C)=O)[C@@H]1C [Rifampin],stimulation of T4 phage production (synergistic effect on phage T4 growth),[1],failed to stimulate T4 phage production
CC1(C)S[C@@H]2[C@H](NC(=O)[C@H](N)c3ccc(O)cc3)C(=O)N2[C@H]1C(=O)O [Amoxicillin],sensitivity or resistance of the MFP bacterial strain to antibiotic (zone of growth inhibition around disks),[2],resistance
Gentamicin,stimulation of T4 phage production (synergistic effect on phage T4 growth),[1],failed to stimulate T4 phage production
"CCn1cc(C(=O)O)c(=O)c2ccc(C)nc21 [Nalidix Acid, Nalidixic acid]",stimulation of T4 phage production (synergistic effect on phage T4 growth),[1],causes a synergistic effect
NCC[C@H](O)C(=O)N[C@@H]1C[C@H](N)[C@@H](O[C@H]2O[C@H](CN)[C@@H](O)[C@H](O)[C@H]2O)[C@H](O)[C@H]1O[C@H]1O[C@H](CO)[C@@H](O)[C@H](N)[C@H]1O [Amikacin],stimulation of T4 phage production (synergistic effect on phage T4 growth),[1],failed to stimulate T4 phage production
"CO/N=C(\C(=O)N[C@@H]1C(=O)N2C(C(=O)O)=C(COC(C)=O)CS[C@H]12)c1csc(N)n1 [CTX, Cefotaxime]",cell viability as assayed by colony forming units,[3]; LB liquid medium,little effected
same,cell division,"[3]; LB liquid medium, FIGS. 3A and 3B",inhibited
same,optical density of the culture treated with the drug,[3]; after the addition of the drug,continues to increase for at least two hours
same,cell size of the T4 infected bacteria,[4],increases in volume considerably producing long fat filaments
same,synergy (size of phage plaques) with CTX (Cefotaxime),[5],+++
same,synergy (size of phage plaques) with CTX (Cefotaxime),[6],+
same,synergy (size of phage plaques) with CTX (Cefotaxime),[7],++
same,synergy (size of phage plaques) with CTX (Cefotaxime),[8],+++
same,synergy (size of phage plaques) with CTX (Cefotaxime),[9],+
same,synergy (size of phage plaques) with CTX (Cefotaxime),[10],+
"C[C@H]1[C@H](NC(=O)/C(=N\OC(C)(C)C(=O)O)c2csc(N)n2)C(=O)N1S(=O)(=O)O [ATM, aztreonam]",stimulation of phage φMFP growth by antibiotic disks,"[11]; FIG. 1, disks marked with +",good stimulation
same,size of φmF plaques in the zone of non lethal antibiotic concentration around disks,"[11]; MFP host mixed with phage φmF, FIG. 1",significantly larger size
same,sensitivity or resistance of the MFP bacterial strain to antibiotic (zone of growth inhibition around disks),[2],sensitivity
same,size of phage plaques in the zone of non lethal concentrations of antibiotic that encircled antibiotic disks,[12],much larger
